Experimental data reported in ChEMBL document CHEMBL1201862, “PubChem BioAssay data set” (2004).
Activity calls are given as the source filed them. Rule as the data show it, for most assays here: actives have a measured IC50 and inactives only a lower limit.

Experiments:
[1] = target: T1, RNA-binding protein pos-1 (Caenorhabditis elegans, UniProt G5EF15); assay: inhibitors of POS-1/mex-3 RNA binding, dose response, biochemical, fluorescence polarization (AID 1964);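 also: purified POS-1 fused to maltose binding protein made in E. coli; potency of compounds blocking POS-1 binding to fluorescent RNA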
T1 sequence (G5EF15 whole entry): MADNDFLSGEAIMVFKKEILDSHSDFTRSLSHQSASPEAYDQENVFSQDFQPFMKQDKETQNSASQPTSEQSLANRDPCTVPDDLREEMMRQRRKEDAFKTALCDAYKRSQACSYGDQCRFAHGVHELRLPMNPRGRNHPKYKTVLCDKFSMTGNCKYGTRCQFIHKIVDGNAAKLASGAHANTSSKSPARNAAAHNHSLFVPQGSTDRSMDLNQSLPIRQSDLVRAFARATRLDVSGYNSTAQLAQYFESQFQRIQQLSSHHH

[2] = target: Intestinal-type alkaline phosphatase (Homo sapiens, UniProt P09923); assay: Dose Response confirmation of uHTS hits from a small molecule inhibitors of human intestinal alkaline phosphatase via a luminescent assay. [Related pubchem assays (depositor defined):AID2544, AID2574]; format: functional
[3] = target: T2, Corticotropin-releasing factor receptor 2/Corticotropin-releasing factor-binding protein (Homo sapiens, UniProt P24387+Q13324); assay: activators of CRF receptor 2 with binding protein – uHTS hits, confirmation (AID 602473); format: functional; conditions: read-out: EC50_Mean
T2 sequence (Q13324 whole entry): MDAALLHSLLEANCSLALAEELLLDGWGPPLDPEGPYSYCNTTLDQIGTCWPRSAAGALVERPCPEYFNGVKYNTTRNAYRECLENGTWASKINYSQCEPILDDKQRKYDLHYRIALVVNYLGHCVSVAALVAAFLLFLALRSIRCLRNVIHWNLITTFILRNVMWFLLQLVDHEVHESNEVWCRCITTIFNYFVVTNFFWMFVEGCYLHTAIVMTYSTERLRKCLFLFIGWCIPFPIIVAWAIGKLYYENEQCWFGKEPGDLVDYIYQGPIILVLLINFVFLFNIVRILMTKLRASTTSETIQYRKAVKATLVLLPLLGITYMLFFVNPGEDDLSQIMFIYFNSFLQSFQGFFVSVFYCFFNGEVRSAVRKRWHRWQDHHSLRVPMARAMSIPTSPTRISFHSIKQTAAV
T2 sequence (P24387 whole entry): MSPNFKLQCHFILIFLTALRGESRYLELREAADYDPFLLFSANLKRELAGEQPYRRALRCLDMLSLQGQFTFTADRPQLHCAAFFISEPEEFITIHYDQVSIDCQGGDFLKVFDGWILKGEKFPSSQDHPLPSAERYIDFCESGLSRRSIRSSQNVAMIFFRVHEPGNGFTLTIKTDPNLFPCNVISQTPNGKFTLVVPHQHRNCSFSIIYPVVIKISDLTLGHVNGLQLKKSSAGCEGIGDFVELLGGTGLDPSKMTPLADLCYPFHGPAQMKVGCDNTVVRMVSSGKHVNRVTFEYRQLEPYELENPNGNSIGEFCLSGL

[4] = target: Eukaryotic translation initiation factor 4H (Homo sapiens, UniProt Q15056); assay: eIF4H inhibition in translation initiation, SAR follow-up (AID 435011); format: functional
[5] = target: Polyadenylate-binding protein 1 (Homo sapiens, UniProt P11940); assay: PABP inhibition in translation initiation, SAR follow-up (AID 435018); format: functional
HEK293 [6] = assay: NOD1 signaling inhibitors, primary screen, cell-based, luminescence, uHTS (AID 1578); format: functional; conditions: Homo sapiens
HEK293 [7] = assay: cells; format: functional, cell-based; conditions: Homo sapiens
HEK293 [8] = assay: cells; format: functional, cell-based; conditions: Homo sapiens; remark: listed apart in the source
HEK293 [9] = assay: NOD2 signaling inhibitors in MDP-stimulated cells, cell-based, uHTS, luminescence (AID 2001); format: functional; conditions: Homo sapiens
Tumor necrosis factor = Tumor necrosis factor (Homo sapiens, UniProt P01375); assay: TNFa-triggered NF-kB activation inhibitors, SAR follow-up, cell-based, revised (AID 2337); format: functional
[10] = target: T3, Nucleotide-binding oligomerization domain-containing protein 1 (Homo sapiens, UniProt Q9Y239); assay: NOD1 signaling inhibitors, SAR follow-up, revised (AID 2333); format: functional
T3 sequence (Q9Y239 whole entry): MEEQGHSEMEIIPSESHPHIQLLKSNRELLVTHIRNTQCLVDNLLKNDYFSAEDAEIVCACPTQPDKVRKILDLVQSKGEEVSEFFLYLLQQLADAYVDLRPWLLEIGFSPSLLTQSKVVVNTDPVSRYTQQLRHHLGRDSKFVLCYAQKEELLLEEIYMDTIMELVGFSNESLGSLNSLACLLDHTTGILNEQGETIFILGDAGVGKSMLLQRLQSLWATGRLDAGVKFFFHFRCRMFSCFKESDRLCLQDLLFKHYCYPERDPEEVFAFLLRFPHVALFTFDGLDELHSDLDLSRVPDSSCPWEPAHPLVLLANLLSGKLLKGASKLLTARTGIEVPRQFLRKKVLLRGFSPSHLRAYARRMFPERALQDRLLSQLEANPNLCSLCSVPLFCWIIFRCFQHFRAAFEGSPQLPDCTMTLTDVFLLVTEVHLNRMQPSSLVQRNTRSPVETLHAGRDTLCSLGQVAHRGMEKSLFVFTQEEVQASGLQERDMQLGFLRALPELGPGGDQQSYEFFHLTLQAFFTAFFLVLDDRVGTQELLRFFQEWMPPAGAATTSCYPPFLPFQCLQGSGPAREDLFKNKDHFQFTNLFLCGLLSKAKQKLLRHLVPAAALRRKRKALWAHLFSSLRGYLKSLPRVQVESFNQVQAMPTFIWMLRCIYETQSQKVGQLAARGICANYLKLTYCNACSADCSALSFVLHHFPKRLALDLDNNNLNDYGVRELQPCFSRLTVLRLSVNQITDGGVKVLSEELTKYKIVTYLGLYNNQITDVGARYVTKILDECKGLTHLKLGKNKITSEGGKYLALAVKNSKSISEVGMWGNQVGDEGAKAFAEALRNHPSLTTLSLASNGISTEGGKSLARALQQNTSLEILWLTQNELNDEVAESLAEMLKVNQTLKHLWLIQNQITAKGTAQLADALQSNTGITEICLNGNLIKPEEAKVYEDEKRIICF

[11] = target: T4, Ubiquitin-conjugating enzyme E2 N (Homo sapiens, UniProt P61088); format: functional;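 also: Dose-response confirmation in a TR-FRET assay detecting UBC13-driven polyubiquitin chain formation, inhibition measured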
T4 sequence (P61088 whole entry): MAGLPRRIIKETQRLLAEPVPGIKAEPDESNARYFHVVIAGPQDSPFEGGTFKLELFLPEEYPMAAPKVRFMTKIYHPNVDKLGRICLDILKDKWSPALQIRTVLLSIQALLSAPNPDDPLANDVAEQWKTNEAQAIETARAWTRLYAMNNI

[12] = target: Nucleotide-binding oligomerization domain-containing protein 2 (Homo sapiens, UniProt Q9HC29); assay: PubChem AID 2334; format: functional
HEK293 [13] = assay: cells; conditions: Homo sapiens
Caspase-3 = target: T5, Caspase-3 (Homo sapiens, UniProt P42574); assay: procaspase-3 activation potency of dual hits, dose response, counter-screen for dual procaspase-3/7 activator project, biochemical, absorbance, PC-3 D3A mutant (AID 504328)
T5 sequence (P42574 whole entry): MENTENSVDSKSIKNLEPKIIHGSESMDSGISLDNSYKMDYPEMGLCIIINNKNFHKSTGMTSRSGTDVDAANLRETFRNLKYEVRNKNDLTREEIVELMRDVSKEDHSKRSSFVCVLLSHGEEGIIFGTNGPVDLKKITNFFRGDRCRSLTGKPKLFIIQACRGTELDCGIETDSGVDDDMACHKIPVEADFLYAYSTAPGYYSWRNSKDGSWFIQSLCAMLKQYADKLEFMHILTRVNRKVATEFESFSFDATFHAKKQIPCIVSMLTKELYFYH

Caspase-7 = Caspase-7 (Homo sapiens, UniProt P55210); assay: procaspase-7 activators, dose response, dual procaspase-3/-7 activator project, biochemical, absorbance, human (AID 504330)

Sequence of Intestinal-type alkaline phosphatase (P09923 whole entry): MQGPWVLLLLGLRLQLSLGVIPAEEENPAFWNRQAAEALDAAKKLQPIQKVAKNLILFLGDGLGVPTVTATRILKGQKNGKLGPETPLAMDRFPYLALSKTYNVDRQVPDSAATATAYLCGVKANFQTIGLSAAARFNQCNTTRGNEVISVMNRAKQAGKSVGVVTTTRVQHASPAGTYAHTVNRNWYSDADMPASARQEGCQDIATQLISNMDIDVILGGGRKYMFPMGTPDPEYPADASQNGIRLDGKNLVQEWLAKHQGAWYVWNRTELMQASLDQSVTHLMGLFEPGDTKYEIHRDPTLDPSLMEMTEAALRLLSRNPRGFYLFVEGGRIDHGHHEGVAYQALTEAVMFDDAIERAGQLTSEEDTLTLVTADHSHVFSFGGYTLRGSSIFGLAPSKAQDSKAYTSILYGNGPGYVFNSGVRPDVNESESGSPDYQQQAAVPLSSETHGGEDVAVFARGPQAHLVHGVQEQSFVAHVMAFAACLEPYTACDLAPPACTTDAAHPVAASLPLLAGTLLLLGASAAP
Sequence of Tumor necrosis factor (P01375 whole entry, the tested form may be a part): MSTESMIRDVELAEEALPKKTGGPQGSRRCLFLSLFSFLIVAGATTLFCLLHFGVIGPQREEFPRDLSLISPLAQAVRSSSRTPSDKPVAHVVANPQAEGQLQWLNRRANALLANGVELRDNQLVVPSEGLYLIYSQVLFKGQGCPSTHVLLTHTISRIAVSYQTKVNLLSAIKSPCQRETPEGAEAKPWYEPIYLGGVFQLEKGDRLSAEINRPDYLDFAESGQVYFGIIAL
Sequence of Polyadenylate-binding protein 1 (P11940 whole entry): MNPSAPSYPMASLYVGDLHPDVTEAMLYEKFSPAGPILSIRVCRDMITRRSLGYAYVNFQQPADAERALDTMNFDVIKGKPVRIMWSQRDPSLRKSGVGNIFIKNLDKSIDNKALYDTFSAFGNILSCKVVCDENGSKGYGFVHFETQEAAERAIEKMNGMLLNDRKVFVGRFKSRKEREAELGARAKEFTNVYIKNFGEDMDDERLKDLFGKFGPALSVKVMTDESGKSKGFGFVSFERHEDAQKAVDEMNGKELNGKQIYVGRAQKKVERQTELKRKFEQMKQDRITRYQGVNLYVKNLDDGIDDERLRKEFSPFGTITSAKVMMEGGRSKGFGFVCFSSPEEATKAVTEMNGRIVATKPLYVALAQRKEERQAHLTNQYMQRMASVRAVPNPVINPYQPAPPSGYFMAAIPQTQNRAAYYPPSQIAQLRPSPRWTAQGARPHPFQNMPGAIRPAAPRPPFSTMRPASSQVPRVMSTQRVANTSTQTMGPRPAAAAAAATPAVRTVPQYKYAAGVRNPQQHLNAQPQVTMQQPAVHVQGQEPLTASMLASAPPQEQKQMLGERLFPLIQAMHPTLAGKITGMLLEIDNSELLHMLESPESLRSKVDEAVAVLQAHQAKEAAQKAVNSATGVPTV
Sequence of Nucleotide-binding oligomerization domain-containing protein 2 (Q9HC29 whole entry, the tested form may be a part): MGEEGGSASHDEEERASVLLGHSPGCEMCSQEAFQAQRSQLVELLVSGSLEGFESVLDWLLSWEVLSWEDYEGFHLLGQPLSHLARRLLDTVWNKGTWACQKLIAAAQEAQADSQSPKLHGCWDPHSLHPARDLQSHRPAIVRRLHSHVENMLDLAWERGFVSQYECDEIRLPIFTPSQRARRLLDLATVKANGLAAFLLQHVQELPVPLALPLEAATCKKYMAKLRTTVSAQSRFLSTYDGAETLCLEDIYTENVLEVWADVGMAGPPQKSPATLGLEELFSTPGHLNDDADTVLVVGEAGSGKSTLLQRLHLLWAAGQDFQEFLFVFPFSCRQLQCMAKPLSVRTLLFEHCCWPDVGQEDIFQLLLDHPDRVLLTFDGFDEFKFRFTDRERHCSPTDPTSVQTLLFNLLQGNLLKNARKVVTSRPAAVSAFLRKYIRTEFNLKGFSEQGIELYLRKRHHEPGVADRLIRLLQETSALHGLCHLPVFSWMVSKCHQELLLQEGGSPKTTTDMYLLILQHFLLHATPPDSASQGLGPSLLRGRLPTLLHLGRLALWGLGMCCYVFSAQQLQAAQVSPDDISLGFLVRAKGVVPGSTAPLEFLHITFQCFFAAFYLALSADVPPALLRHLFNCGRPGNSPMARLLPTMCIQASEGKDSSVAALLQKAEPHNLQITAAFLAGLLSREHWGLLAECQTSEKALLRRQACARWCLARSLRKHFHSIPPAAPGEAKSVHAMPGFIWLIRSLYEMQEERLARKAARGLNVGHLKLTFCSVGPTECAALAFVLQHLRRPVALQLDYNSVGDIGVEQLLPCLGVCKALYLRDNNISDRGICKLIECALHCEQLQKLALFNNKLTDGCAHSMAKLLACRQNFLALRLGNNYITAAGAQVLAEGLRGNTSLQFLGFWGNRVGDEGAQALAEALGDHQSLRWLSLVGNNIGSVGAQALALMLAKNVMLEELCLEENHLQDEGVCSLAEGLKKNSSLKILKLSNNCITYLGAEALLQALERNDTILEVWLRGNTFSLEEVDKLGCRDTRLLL

**Q.** How did the EC50 [1] turn out when `COC(=O)Cn1cc(/C=C2\C(=O)NC(=O)N(c3ccccc3)C2=O)c2ccccc21` was run?
**A.** Its EC50 is > 300 µM (inconclusive).

**Q.** And the IC50 [2]?
**A.** Its IC50 is > 100 µM (inactive).

**Q.** What about the EC50 [3] of the same molecule?
**A.** Its EC50 is 7.64 µM (active).

**Q.** What does the source list for `Cc1cccc(NC(=O)CSc2ccc(-c3ccco3)nn2)c1C`?
**A.** IC50 [4]: 71.5 µM (active); IC50 [5]: > 100 µM (inactive)

**Q.** With `O=S(=O)(Nc1nc2ccccc2[nH]1)c1ccc(Cl)cc1` as the molecule, how does the EC50 (HEK293 [6]) read?
**A.** Its EC50 is 2.29 µM (active).

**Q.** What about the IC50 (HEK293 [7]) of the same molecule?
**A.** Its IC50 is > 20 µM (inactive).

**Q.** And the IC50 (HEK293 [8])?
**A.** Its IC50 is > 20 µM (inactive).

**Q.** What about the IC50 (HEK293 [9]) of the same molecule?
**A.** Its IC50 is > 20 µM (inactive).

**Q.** What about the IC50 (Tumor necrosis factor) of the same molecule?
**A.** The IC50 was > 20 µM (inactive).

**Q.** What about the IC50 [10] of the same molecule?
**A.** The IC50 was 1.52 µM (active).

**Q.** What about the IC50 [11] of the same molecule?
**A.** The IC50 was > 20 µM (inactive).

**Q.** What about the IC50 [12] of the same molecule?
**A.** Its IC50 is > 20 µM (inactive).

**Q.** What about the IC50 (HEK293 [13]) of the same molecule?
**A.** The IC50 was > 20 µM (inactive).

**Q.** How did the EC50 (Caspase-3) turn out when `COc1cccc(NC(=O)c2ccnc(N3CCC(C(=O)NCc4cc(OC)ccc4OC)CC3)c2)c1` was run?
**A.** Its EC50 is > 85.3 µM (inactive).

**Q.** And the EC50 (Caspase-7)?
**A.** The EC50 was > 85.3 µM (inactive).
